Data published in ChEMBL document CHEMBL4673219, “Novel 5,6-disubstituted pyrrolo[2,3-d]pyrimidine derivatives as broad spectrum antiproliferative agents: Synthesis, cell based assays, kinase profile and molecular docking study” (Bioorg Med Chem, 2018).
Where “and” joins values, the source holds several entries; their conditions need not be identical. Equal values may be shown once.

Assays:
SN12C = experiment: Growth inhibition of human SN12C cells assessed as growth percentage at 10 uM incubated for 48 hrs by sulforhodamine B assay relative to control; format: functional; conditions: read-out: Activity
HCT-15 [1] = experiment: Growth inhibition of human HCT-15 cells assessed as growth percentage at 10 uM incubated for 48 hrs by sulforhodamine B assay relative to control; format: functional; conditions: read-out: Activity
K562 [2] = experiment: Growth inhibition of human K562 cells assessed as growth percentage at 10 uM incubated for 48 hrs by sulforhodamine B assay relative to control; format: functional; conditions: read-out: Activity
[3] = target: Fibroblast growth factor receptor 1 (Homo sapiens) (UniProt P11362); experiment: Inhibition of human FGFR1 at 10 uM using myelin basic protein as substrate incubated for 40 mins in presence of [gamma33P]ATP by scintillation counting method relative to control
Fibroblast growth factor receptor 1 (Homo sapiens), sequence (P11362 22-822 limits assumed): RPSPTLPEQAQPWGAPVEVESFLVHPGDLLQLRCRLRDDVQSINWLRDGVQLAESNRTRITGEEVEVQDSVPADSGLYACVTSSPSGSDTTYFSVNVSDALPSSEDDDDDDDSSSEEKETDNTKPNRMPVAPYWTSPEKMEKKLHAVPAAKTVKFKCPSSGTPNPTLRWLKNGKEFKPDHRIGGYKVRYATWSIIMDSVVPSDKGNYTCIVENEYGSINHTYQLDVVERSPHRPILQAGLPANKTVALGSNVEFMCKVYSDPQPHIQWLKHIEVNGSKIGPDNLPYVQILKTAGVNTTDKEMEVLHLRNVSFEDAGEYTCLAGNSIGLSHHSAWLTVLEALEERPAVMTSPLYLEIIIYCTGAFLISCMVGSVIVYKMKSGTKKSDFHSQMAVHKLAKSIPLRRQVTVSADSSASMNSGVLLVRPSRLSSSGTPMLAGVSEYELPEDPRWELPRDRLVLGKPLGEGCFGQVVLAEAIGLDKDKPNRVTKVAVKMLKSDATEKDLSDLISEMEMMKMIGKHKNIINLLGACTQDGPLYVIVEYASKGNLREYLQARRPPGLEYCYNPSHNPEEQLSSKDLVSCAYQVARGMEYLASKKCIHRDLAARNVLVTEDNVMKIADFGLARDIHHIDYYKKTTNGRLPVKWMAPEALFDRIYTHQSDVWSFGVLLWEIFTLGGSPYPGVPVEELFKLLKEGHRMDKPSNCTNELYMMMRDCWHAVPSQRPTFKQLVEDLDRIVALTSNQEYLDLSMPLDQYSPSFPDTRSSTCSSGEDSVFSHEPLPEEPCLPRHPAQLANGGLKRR

SF-295 = experiment: Growth inhibition of human SF-295 cells incubated for 48 hrs by sulforhodamine B assay; format: functional
SW-620 = experiment: Growth inhibition of human SW-620 cells incubated for 48 hrs by sulforhodamine B assay; format: functional; conditions: for CC50: read-out: LC50 (the source's name)
NCI-H322M [4] = experiment: Growth inhibition of human NCI-H322M cells incubated for 48 hrs by sulforhodamine B assay; format: functional; conditions: for CC50: 48 h, read-out: LC50 (the source's name)
[5] = Cytotoxicity against human HFF-1 cells assessed as cell growth inhibition at 10 uM by MTT assay relative to control; format: cell-based; conditions: read-out: GI
HCT-116 = experiment: Antiproliferative activity against human HCT-116 cells assessed as cell growth inhibition at 10 uM measured after 72 hrs by MTT assay relative to control; format: functional; conditions: read-out: GI
TK-10 = experiment: Growth inhibition of human TK-10 cells assessed as growth percentage at 100 uM incubated for 48 hrs by sulforhodamine B assay relative to control; format: functional; conditions: read-out: Activity
HCT-15 [6] = experiment: Growth inhibition of human HCT-15 cells assessed as growth percentage at 100 uM incubated for 48 hrs by sulforhodamine B assay relative to control; format: functional; conditions: read-out: Activity
NCI-H522 = experiment: Growth inhibition of human NCI-H522 cells assessed as growth percentage at 100 uM incubated for 48 hrs by sulforhodamine B assay relative to control; format: functional; conditions: read-out: Activity
NCI-H23 [7] = experiment: Growth inhibition of human NCI-H23 cells assessed as growth percentage at 100 uM incubated for 48 hrs by sulforhodamine B assay relative to control; format: functional; conditions: read-out: Activity
NCI-H226 [8] = experiment: Growth inhibition of human NCI-H226 cells assessed as growth percentage at 100 uM incubated for 48 hrs by sulforhodamine B assay relative to control; format: functional; conditions: read-out: Activity
A549 [9] = experiment: Growth inhibition of human A549/ATCC cells assessed as growth percentage at 100 uM incubated for 48 hrs by sulforhodamine B assay relative to control; format: functional; conditions: read-out: Activity
OVCAR-8 = experiment: Growth inhibition of human OVCAR-8 cells assessed as growth percentage at 1 uM incubated for 48 hrs by sulforhodamine B assay relative to control; format: functional; conditions: read-out: Activity
MDA-MB-435 = experiment: Growth inhibition of human MDA-MB-435 cells assessed as growth percentage at 1 uM incubated for 48 hrs by sulforhodamine B assay relative to control; format: functional; conditions: read-out: Activity
Malme-3M [10] = experiment: Growth inhibition of human Malme-3M cells assessed as growth percentage at 1 uM incubated for 48 hrs by sulforhodamine B assay relative to control; format: functional; conditions: read-out: Activity
SF-268 [11] = experiment: Growth inhibition of human SF-268 cells assessed as growth percentage at 1 uM incubated for 48 hrs by sulforhodamine B assay relative to control; format: functional; conditions: read-out: Activity
NCI-H23 [12] = experiment: Growth inhibition of human NCI-H23 cells assessed as growth percentage at 1 uM incubated for 48 hrs by sulforhodamine B assay relative to control; format: functional; conditions: read-out: Activity
NCI-H226 [13] = experiment: Growth inhibition of human NCI-H226 cells assessed as growth percentage at 1 uM incubated for 48 hrs by sulforhodamine B assay relative to control; format: functional; conditions: read-out: Activity
SR = experiment: Growth inhibition of human SR cells assessed as growth percentage at 1 uM incubated for 48 hrs by sulforhodamine B assay relative to control; format: functional; conditions: read-out: Activity
RPMI-8226 = experiment: Growth inhibition of human RPMI-8226 cells assessed as growth percentage at 1 uM incubated for 48 hrs by sulforhodamine B assay relative to control; format: functional; conditions: read-out: Activity
CAKI-1 = experiment: Growth inhibition of human CAKI-1 cells assessed as growth percentage at 0.1 uM incubated for 48 hrs by sulforhodamine B assay relative to control; format: functional; conditions: read-out: Activity
A498 = experiment: Growth inhibition of human A498 cells assessed as growth percentage at 0.1 uM incubated for 48 hrs by sulforhodamine B assay relative to control; format: functional; conditions: read-out: Activity
786-0 = experiment: Growth inhibition of human 786-0 cells assessed as growth percentage at 0.1 uM incubated for 48 hrs by sulforhodamine B assay relative to control; format: functional; conditions: read-out: Activity
UACC-257 = experiment: Growth inhibition of human UACC-257 cells assessed as growth percentage at 0.1 uM incubated for 48 hrs by sulforhodamine B assay relative to control; format: functional; conditions: read-out: Activity
LOX IMVI = experiment: Growth inhibition of human LOX IMVI cells assessed as growth percentage at 0.1 uM incubated for 48 hrs by sulforhodamine B assay relative to control; format: functional; conditions: read-out: Activity
SNB-75 = experiment: Growth inhibition of human SNB-75 cells assessed as growth percentage at 0.1 uM incubated for 48 hrs by sulforhodamine B assay relative to control; format: functional; conditions: read-out: Activity
KM12 = experiment: Growth inhibition of human KM12 cells assessed as growth percentage at 0.1 uM incubated for 48 hrs by sulforhodamine B assay relative to control; format: functional; conditions: read-out: Activity
NCI-H322M [14] = experiment: Growth inhibition of human NCI-H322M cells assessed as growth percentage at 0.1 uM incubated for 48 hrs by sulforhodamine B assay relative to control; format: functional; conditions: read-out: Activity
T47D = experiment: Growth inhibition of human T47D cells assessed as growth percentage at 0.01 uM incubated for 48 hrs by sulforhodamine B assay relative to control; format: functional; conditions: read-out: Activity
PC-3 = experiment: Growth inhibition of human PC-3 cells assessed as growth percentage at 0.01 uM incubated for 48 hrs by sulforhodamine B assay relative to control; format: functional; conditions: read-out: Activity
SK-MEL-5 = experiment: Growth inhibition of human SK-MEL-5 cells assessed as growth percentage at 0.01 uM incubated for 48 hrs by sulforhodamine B assay relative to control; format: functional; conditions: read-out: Activity
M14 = experiment: Growth inhibition of human M14 cells assessed as growth percentage at 0.01 uM incubated for 48 hrs by sulforhodamine B assay relative to control; format: functional; conditions: read-out: Activity
Malme-3M [15] = experiment: Growth inhibition of human Malme-3M cells assessed as growth percentage at 0.01 uM incubated for 48 hrs by sulforhodamine B assay relative to control; format: functional; conditions: read-out: Activity
SF-268 [16] = experiment: Growth inhibition of human SF-268 cells assessed as growth percentage at 0.01 uM incubated for 48 hrs by sulforhodamine B assay relative to control; format: functional; conditions: read-out: Activity
A549 [17] = experiment: Growth inhibition of human A549/ATCC cells assessed as growth percentage at 0.01 uM incubated for 48 hrs by sulforhodamine B assay relative to control; format: functional; conditions: read-out: Activity
K562 [18] = experiment: Growth inhibition of human K562 cells assessed as growth percentage at 0.01 uM incubated for 48 hrs by sulforhodamine B assay relative to control; format: functional; conditions: read-out: Activity

CCCCCCCC(=O)Nc1nc2[nH]c(CN3CCN(Cc4cccc(F)c4)CC3)c(CN3CCN(Cc4cccc(F)c4)CC3)c2c(=O)[nH]1
growth at 10 µM (SN12C): -90.6% | growth at 10 µM (HCT-15 [1]): -70.8% | growth at 10 µM (K562 [2]): -65.6% | inhibition [3]: 54.5% | GI50 (SF-295): 1410 nM | LC50 (SF-295): 5790 nM | TGI (SF-295): 2850 nM | GI50 (SW-620; 48 h): 190 nM | TGI (SW-620; 48 h): 380 nM | CC50 (SW-620; 48 h): 740 nM | GI50 (SW-620; Homo sapiens, SW-620, 48 h): 191 nM | TGI (SW-620; Homo sapiens, SW-620, 48 h): 377 nM | CC50 (SW-620; Homo sapiens, SW-620, 48 h): 744 nM | GI50 (NCI-H322M [4]; Homo sapiens, NCI-H322M): 1460 nM | TGI (NCI-H322M [4]; Homo sapiens, NCI-H322M): 2920 nM | CC50 (NCI-H322M [4]; Homo sapiens, NCI-H322M): 5830 nM | inhibition at 10 µM [5]: 14.1% | inhibition of growth at 10 µM (HCT-116): 95.5% | growth at 100 µM (TK-10): -91% | growth at 100 µM (HCT-15 [6]): -85% | growth at 100 µM (NCI-H522): -79% | growth at 100 µM (NCI-H23 [7]): -53% | growth at 100 µM (NCI-H226 [8]): -94% | growth at 100 µM (A549 [9]): -88% | growth at 1 µM (OVCAR-8): -66% | growth at 1 µM (MDA-MB-435): 10% | growth at 1 µM (Malme-3M [10]): 40% | growth at 1 µM (SF-268 [11]): 65% | growth at 1 µM (NCI-H23 [12]): 92% | growth at 1 µM (NCI-H226 [13]): 91% | growth at 1 µM (SR): -31% | growth at 1 µM (RPMI-8226): 13% | growth at 0.1 µM (CAKI-1): 85% | growth at 0.1 µM (A498): 76% | growth at 0.1 µM (786-0): 92% | growth at 0.1 µM (UACC-257): 94% | growth at 0.1 µM (LOX IMVI): 94% | growth at 0.1 µM (SNB-75): 82% | growth at 0.1 µM (KM12): 93% | growth at 0.1 µM (NCI-H322M [14]): 92% | growth at 0.01 µM (T47D): 95% | growth at 0.01 µM (PC-3): 98% | growth at 0.01 µM (SK-MEL-5): 100% | growth at 0.01 µM (M14): 100% | growth at 0.01 µM (Malme-3M [15]): 98% | growth at 0.01 µM (SF-268 [16]): 99% | growth at 0.01 µM (A549 [17]): 98% | growth at 0.01 µM (K562 [18]): 102%

Nc1nc2[nH]c(CN3CCN(c4cc(Cl)cc(Cl)c4)CC3)c(CN3CCN(c4cc(Cl)cc(Cl)c4)CC3)c2c(=O)[nH]1
growth at 10 µM (SN12C): 73.1% | growth at 10 µM (HCT-15 [1]): 67.4% | growth at 10 µM (K562 [2]): -17.6% | inhibition [3]: -8.65% | GI50 (SF-295): 1820 nM | TGI (SF-295): 3900 nM | GI50 (SW-620; Homo sapiens, SW-620, 48 h): 1720 nM | TGI (SW-620; Homo sapiens, SW-620, 48 h): 3500 nM | CC50 (SW-620; Homo sapiens, SW-620, 48 h): 7120 nM | CC50 (NCI-H322M [4]): 73200 nM and 7320 nM | inhibition at 10 µM [5]: 15.8% | inhibition of growth at 10 µM (HCT-116): 91.7% | growth at 100 µM (TK-10): -69% | growth at 100 µM (HCT-15 [6]): -49% | growth at 100 µM (NCI-H522): -60% | growth at 100 µM (NCI-H23 [7]): -47% | growth at 100 µM (NCI-H226 [8]): -25% | growth at 100 µM (A549 [9]): -45% | growth at 1 µM (OVCAR-8): 96% | growth at 1 µM (MDA-MB-435): 88% | growth at 1 µM (Malme-3M [10]): 101% | growth at 1 µM (SF-268 [11]): 94% | growth at 1 µM (NCI-H23 [12]): 103% | growth at 1 µM (NCI-H226 [13]): 93% | growth at 1 µM (SR): 67% | growth at 1 µM (RPMI-8226): 92% | growth at 0.1 µM (CAKI-1): 90% | growth at 0.1 µM (A498): 82% | growth at 0.1 µM (786-0): 93% | growth at 0.1 µM (UACC-257): 99% | growth at 0.1 µM (LOX IMVI): 99% | growth at 0.1 µM (SNB-75): 89% | growth at 0.1 µM (KM12): 105% | growth at 0.1 µM (NCI-H322M [14]): 102% | growth at 0.01 µM (T47D): 91% | growth at 0.01 µM (PC-3): 97% | growth at 0.01 µM (SK-MEL-5): 96% | growth at 0.01 µM (M14): 93% | growth at 0.01 µM (Malme-3M [15]): 95% | growth at 0.01 µM (SF-268 [16]): 102% | growth at 0.01 µM (A549 [17]): 97% | growth at 0.01 µM (K562 [18]): 108%
